From article PMC6355894, “Cryo-EM structure of the essential ribosome assembly AAA-ATPase Rix7” (Nature Communications, 2019)

Tests used:
CT Rix7 = biological target: T1, CT Rix7 (Thermochaetoides thermophila, UniProt G0RZG1, E303Q/E602Q); experiment: cryo-EM structure of the complex ([…] A); settings: co-purified nucleotide, no ATP added; 5 mM MgCl2, pH 8; nucleotide-binding pockets of D1 and D2 AAA domains; ATP geometry restrained to reference structure
T1 construct: gene CTHT_0002840; full-length (NTD residues 1-192 not seen in map), codon-optimised, pET24b, C-terminal His6, expressed in E. coli BL21(DE3)*; asymmetric homohexamer

[1] = biological target: Chaetomium thermophilum Rix7 double Walker B mutant (CT Rix7 E303Q/E602Q) (Chaetomium thermophilum); experiment: cryo-EM structure; CT Rix7 E303Q/E602Q at ~0.6 mg/ml after SEC in Buffer A (20 mM Tris-HCl pH 8, 150 mM NaCl, 5 mM MgCl2, 0.5 mM DTT); no ATP and no substrate added; no symmetry imposed (C1); 4.5 Å

T1 sequence (G0RZG1 entry or part of it E303Q/E602Q): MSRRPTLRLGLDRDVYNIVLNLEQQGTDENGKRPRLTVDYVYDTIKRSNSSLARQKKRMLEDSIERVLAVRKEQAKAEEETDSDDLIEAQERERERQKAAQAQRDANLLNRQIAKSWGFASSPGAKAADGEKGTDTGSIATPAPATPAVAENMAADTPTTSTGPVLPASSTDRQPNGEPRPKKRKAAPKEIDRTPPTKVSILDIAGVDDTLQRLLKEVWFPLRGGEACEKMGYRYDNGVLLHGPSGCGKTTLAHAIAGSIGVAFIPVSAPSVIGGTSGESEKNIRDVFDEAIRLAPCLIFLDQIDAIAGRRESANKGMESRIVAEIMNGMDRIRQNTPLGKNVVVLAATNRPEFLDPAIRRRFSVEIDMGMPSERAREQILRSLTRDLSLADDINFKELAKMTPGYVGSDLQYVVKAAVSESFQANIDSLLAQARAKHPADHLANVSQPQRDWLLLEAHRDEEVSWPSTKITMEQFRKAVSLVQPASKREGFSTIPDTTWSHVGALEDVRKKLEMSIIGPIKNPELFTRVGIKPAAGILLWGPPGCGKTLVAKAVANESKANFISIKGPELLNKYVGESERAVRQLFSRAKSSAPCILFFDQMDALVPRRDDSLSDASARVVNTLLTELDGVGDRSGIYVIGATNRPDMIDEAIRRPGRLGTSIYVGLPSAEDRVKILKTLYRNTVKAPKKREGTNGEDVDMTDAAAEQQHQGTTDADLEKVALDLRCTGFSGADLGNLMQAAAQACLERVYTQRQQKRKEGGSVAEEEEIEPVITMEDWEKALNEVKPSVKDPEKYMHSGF

## Nc1ncnc2c1ncn2[C@@H]1O[C@H](COP(=O)(O)OP(=O)(O)OP(=O)(O)O)[C@@H](O)[C@H]1O [ATP]
CT Rix7
  cryo-EM structure of the complex (4.5 A): In the D1 AAA domain, ATP is present in the nucleotide pockets of all six protomers

## Chaetomium thermophilum Rix7 double Walker B mutant (CT Rix7 E303Q/E602Q) (enzyme)
[1]
  stoichiometry N: 6
